One series concerns P388. Put plainly: Cytotoxicity against mouse P388 ATCC CCL 46 cells. The format is functional, cell-based.
Another series relates to Amorphotheca resinae. As to the kind of experiment: Antifungal activity against Cladosporium resinae. The format is functional, organism-based.
For another series, the system named is Human alphaherpesvirus 1. As to the kind of experiment: Antiviral activity against HSV1 F ATCC VR 733 in african green monkey BSC1 cells. The format is functional, organism-based. Particulars: BSC-1.
The test system of a further series is Poliovirus 1. As to the kind of experiment: Antiviral activity against PV1 in african green monkey BSC1 cells. It is filed as functional, organism-based. Particulars: BSC-1.
A short description of series [1]: Cytotoxicity against african green monkey BSC1 cells at 40 ug/disc. The format is cell-based. Conditions: chlorocebus aethiops, bsc-1.
Another series concerns Escherichia coli. As to the kind of experiment: Antibacterial activity against Escherichia coli. The format is functional, organism-based.
Another series deals with Bacillus subtilis. Put plainly: Antibacterial activity against Bacillus subtilis. It is filed as functional.
Another series deals with Pseudomonas aeruginosa. As to the kind of experiment: Antibacterial activity against Pseudomonas aeruginosa. The format is functional, organism-based.
The subject of another series is Candida albicans. Put plainly: Antifungal activity against Candida albicans. The format is functional, organism-based.
Series [2] concerns Trichophyton mentagrophytes. Put plainly: Antifungal activity against Trichophyton mentagrophytes. The format is functional, organism-based.

Converted amounts (≈) assume the structure as drawn. The source made the active and inactive calls. The calls are words filed in the database; no cut-off is given here.

Turning to `COc1cn2c(cc1=O)C(=O)c1ccnc(Cc3ccccc3)c1-2` [PTEROCELLIN B], in the series with P388, half-maximal inhibition (IC50) required 0.323 µg/mL (≈ 1.01 µM).

For `COc1cn2c(c(Cc3c4n(cc(OC)c3=O)-c3c(ccnc3CC(C)C)C4=O)c1=O)C(=O)c1ccnc(CC(C)C)c1-2` [PTEROCELLIN F], the outcome with Amorphotheca resinae, with Human alphaherpesvirus 1, with Poliovirus 1, with Escherichia coli, in the series on Pseudomonas aeruginosa and with Candida albicans was inactive. The outcome in series [2] was inactive. Also, the IC50 – broadly, the concentration that gives 50% inhibition – in the series with P388 is more than 6.25 µg/mL. Besides, in series [1], the Activity entry was “Non-toxic”. Besides, the MIC in the series with Bacillus subtilis amounted to 1 µg.

Consider `COc1cn2c(cc1=O)C(=O)c1ccnc(CC(C)C)c1-2` [PTEROCELLIN A], for which, in the series with P388, the IC50 was found to be 0.477 µg/mL (≈ 1.68 µM).

For the molecule `COc1cn2c(c(C(C)C)c1=O)C(=O)c1ccnc(CC(C)C)c1-2` [PTEROCELLIN D], the result in the series with Amorphotheca resinae, in the series on Pseudomonas aeruginosa and in the series on Candida albicans was inactive. The IC50 in the series with P388 came to 4.77 µg/mL (≈ 14.6 µM). The same molecule gave an MIC with Bacillus subtilis of 0.5 µg.

On to `COc1cn2c(c(-c3c4n(cc(OC)c3=O)-c3c(ccnc3CC(C)C)C4=O)c1=O)C(=O)c1ccnc(CC(C)C)c1-2` [PTEROCELLIN E], for which the outcome with Amorphotheca resinae, with Human alphaherpesvirus 1, in the series on Poliovirus 1, in the series on Escherichia coli, in the series with Pseudomonas aeruginosa and with Candida albicans was inactive. The result in [2] was inactive. Moreover, the IC50 with P388 was more than 6.25 µg/mL. Also, the Activity result in series [1] was “Non-toxic”. Moreover, the MIC in the series with Bacillus subtilis was 1 µg.

As for `COc1cn2c(c(CCCCC(C)=O)c1=O)C(=O)c1ccnc(CC(C)C)c1-2` [PTEROCELLIN C], the outcome with Amorphotheca resinae, with Human alphaherpesvirus 1, in the series with Poliovirus 1, in the series with Escherichia coli, with Pseudomonas aeruginosa and with Candida albicans was inactive. Besides, the result in series [2] was inactive. In the series on P388, the IC50 is more than 6.25 µg/mL. Further, the Activity result in series [1] is “Non-toxic”. In the series on Bacillus subtilis, the MIC was 0.2 µg.

The values above are taken from ChEMBL document CHEMBL1145551, “Further pterocellins from the New Zealand marine bryozoan Pterocella vesiculosa” (J Nat Prod, 2008).
